Reference: ChEMBL document CHEMBL1201862, “PubChem BioAssay data set” (2004)
Active and inactive are the calls of the source. Cut-off read from the data, not from the text of the source, for most assays here: actives have a measured EC50 and inactives only a lower limit.

Experiments:
[1] = blockers of HIV-1 envelope-mediated cell-cell fusion – cherry-pick, dose response (AID 652057); format: functional, cell-based
[2] = Luminescence Cell-Based Dose Response HTS to Identify Inhibitors of 5'UTR Stem-Loop Driven Prion Protein mRNA Translation in H4 Neuroglioblastoma Cells. [Related pubchem assays: 1827 (Project Summary), 1813 (Primary HTS)]; format: functional
[3] = target: T1, Microphthalmia-associated transcription factor (Homo sapiens, UniProt O75030); assay: reducers of TRPM1 reporter luminescence, concentration series – cell-based, SK-MEL-5, cherry-picked, set 3, MITF inhibitor project, dose response (AID 493073); format: functional;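 note: SK-MEL-5 melanoma cells with luciferase driven by the MITF target TRPM1 promoter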
T1 sequence (O75030 whole entry): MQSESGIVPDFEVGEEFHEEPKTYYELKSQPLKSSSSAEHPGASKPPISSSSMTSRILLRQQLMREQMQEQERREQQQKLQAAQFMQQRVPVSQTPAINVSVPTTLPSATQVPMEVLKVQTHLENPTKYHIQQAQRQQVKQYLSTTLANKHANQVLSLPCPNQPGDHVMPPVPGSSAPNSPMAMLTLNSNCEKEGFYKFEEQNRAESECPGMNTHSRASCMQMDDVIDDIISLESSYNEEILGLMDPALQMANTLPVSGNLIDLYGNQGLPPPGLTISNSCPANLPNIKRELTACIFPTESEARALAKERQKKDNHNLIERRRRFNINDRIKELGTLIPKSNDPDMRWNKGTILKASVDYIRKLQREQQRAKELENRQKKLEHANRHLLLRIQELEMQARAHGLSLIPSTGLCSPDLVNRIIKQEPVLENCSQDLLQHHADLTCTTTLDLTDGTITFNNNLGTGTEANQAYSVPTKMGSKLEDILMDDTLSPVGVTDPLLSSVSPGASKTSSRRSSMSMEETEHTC

[4] = Luminescence-based counterscreen assay for KLF5 inhibitors: dose response cell-based high throughput screening assay to identify cytotoxic compounds using the IEC-6 intestinal epithelial cell line. [Related pubchem assays: 1700 (Primary screen.), 1834 (Confirmation screen.), 1858 (Summary AID.), 1905 (Counterscreen.)]; format: functional
[5] = luciferase reporter signal suppression in cells – H4 neuroglioma cells, luminescence, dose response (AID 1990); format: functional, cell-based
[6] = HIV-1 AD8 envelope cell-cell fusion blockers – cherry-pick, dose response (AID 652062); format: functional, cell-based;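 note: luciferase signal from cell-cell fusion driven by HIV-1 clade B AD8 Env; potency is for inhibitors of fusion seen as a drop in luminescence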
[7] = alpha-synuclein stem-loop luciferase translation blockers – H4 neuroglioma cells, luminescence, confirmation (AID 1988); format: functional, cell-based
[8] = target: T2, Heat shock factor protein 1 (Mus musculus, UniProt P38532); assay: decrease of HSF1-responsive luciferase luminescence – cell-based, NIH3T3, dose retest, confirmation (AID 2382); format: functional;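 note: NIH3T3 fibroblasts with HSF1-driven luciferase reporter stressed by proteasome inhibitor MG132; luminescence from HSF1-driven luciferase expression after 8 hours of MG132 stress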
T2 sequence (P38532 whole entry): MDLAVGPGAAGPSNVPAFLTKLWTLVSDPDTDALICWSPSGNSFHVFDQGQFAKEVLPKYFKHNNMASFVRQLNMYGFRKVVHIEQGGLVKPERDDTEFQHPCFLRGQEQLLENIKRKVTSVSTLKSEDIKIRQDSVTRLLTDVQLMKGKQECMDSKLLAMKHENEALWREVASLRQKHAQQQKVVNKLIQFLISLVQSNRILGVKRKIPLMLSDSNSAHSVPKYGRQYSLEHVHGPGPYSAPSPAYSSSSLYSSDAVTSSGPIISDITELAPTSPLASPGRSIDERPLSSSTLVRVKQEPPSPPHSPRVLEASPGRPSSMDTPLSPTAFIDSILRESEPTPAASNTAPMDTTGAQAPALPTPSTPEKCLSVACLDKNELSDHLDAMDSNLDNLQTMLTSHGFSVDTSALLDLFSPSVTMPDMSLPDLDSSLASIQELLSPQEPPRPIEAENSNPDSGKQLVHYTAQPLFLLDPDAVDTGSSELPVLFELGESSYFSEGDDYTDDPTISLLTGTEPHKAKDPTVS

[9] = off-target signal loss in HeLa-CEM21 co-culture – HeLa F-luc CTL cells, cherry-picked, counter-screen for HIV-1 Env fusion inhibitor project, dose response (AID 652040); format: functional, cell-based;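 note: potency for signal decrease marking cytotoxic or nonspecific inhibition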
[10] = blockers of HIV-1 ZM109 envelope-driven cell-cell fusion – HeLa effector, CEM target cells, luciferase, cherry-pick, dose response (AID 652058); format: functional, cell-based;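 note: luciferase signal from HIV-1 Env mediated cell-cell fusion of effector and target cells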
H9c2 = assay: cells; format: functional, cell-based; settings: Rattus norvegicus, H9c2, Myocardium
[11] = A Cell Based Secondary Assay To Explore Cytotoxicity of Compounds that Sensitize Mycobacterium Tuberculosis to Beta-Lactam Antibiotics.; format: functional
[12] = target: T3, Alkaline phosphatase, tissue-nonspecific isozyme (Homo sapiens, UniProt P05186)
T3 sequence (P05186 whole entry): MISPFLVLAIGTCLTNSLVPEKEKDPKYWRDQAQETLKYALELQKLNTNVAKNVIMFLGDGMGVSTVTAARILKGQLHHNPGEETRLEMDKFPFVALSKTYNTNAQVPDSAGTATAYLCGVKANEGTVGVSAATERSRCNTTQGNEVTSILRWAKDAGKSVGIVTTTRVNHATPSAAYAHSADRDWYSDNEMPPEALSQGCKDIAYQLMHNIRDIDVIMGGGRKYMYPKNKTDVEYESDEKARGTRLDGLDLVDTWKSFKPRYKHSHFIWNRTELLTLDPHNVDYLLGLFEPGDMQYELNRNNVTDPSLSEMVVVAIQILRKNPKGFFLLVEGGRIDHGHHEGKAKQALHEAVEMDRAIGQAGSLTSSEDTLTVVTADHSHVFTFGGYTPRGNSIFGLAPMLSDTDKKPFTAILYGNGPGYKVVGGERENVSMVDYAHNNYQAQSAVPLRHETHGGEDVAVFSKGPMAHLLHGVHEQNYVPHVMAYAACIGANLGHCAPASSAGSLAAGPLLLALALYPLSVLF

[13] = target: Peroxisome proliferator-activated receptor gamma/Nuclear receptor coactivator 3 (Homo sapiens, UniProt P37231); format: functional;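 note: agonist potency for raising coactivator recruitment to the receptor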
[14] = target: ADP-ribosylation factor GTPase-activating protein 1 (Rattus norvegicus, UniProt Q62848); assay: Fluorescence polarization-based biochemical high throughput dose response screening assay to identify inhibitors of ADP-ribosylation factor GTPase activating protein 1 (ARFGAP1).; format: functional
[15] = target: Peroxisome proliferator-activated receptor gamma/Nuclear receptor coactivator 2 (Homo sapiens, UniProt P37231); format: functional;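 note: agonist potency for raising coactivator recruitment to the receptor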
[16] = target: Peroxisome proliferator-activated receptor gamma/Nuclear receptor coactivator 1 (Homo sapiens, UniProt P37231); format: functional;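 note: agonist potency as compounds enhance coactivator SRC-1 recruitment to PPARgamma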
[17] = target: G-protein coupled receptor 55 (Homo sapiens, UniProt Q9Y2T6); assay: selective activators of receptor GPR55 – imaging, U2OS cells, beta-arrestin-GFP redistribution, primary screen (AID 1961); format: functional
Streptokinase A = target: T4, Streptokinase A (Streptococcus pyogenes serotype M1, UniProt P10520); assay: viability-normalized secreted streptokinase activity reduction – plasminogen activation absorbance, OD405, dose response (AID 1914); format: functional, Streptococcus pyogenes M1 GAS;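 note: secreted streptokinase activity via plasminogen activation per viability signal from cell pellet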
T4 sequence (P10520 whole entry): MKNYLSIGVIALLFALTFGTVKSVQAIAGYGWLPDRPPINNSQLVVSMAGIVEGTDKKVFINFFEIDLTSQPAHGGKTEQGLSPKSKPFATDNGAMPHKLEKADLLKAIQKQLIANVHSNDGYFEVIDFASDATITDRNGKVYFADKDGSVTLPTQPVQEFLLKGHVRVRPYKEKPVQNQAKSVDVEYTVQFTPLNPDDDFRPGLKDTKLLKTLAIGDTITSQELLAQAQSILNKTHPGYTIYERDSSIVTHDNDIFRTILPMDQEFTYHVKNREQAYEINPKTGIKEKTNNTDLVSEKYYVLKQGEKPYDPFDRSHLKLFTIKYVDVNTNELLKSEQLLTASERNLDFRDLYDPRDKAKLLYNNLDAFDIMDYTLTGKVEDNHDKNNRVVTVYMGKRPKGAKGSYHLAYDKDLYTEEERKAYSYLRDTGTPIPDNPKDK

[18] = luciferase reporter signal reduction – luminescence, H4-C neuroglioblastoma cells, dose response (AID 2458); format: functional, cell-based;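 note: H4 neuroglioblastoma cells stably carrying a luciferase reporter gene fusion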
cells = format: functional, cell-based
[19] = NIH3T3 cell viability loss – ATP luminescence, mouse fibroblasts, counter-screen, dose response (AID 2010); format: functional, cell-based;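 note: cells exposed to compound for about 90 hours before reading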
[20] = target: ATP-dependent molecular chaperone HSP82 (Candida albicans (strain WO-1) (Yeast), UniProt C4YTQ8); assay: steroid-induced GRE reporter decrease in yeast – S. cerevisiae, luminescence, Hsp90 inhibitor project, dose response (AID 2400); format: functional, cell-based;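 note: beta-galactosidase luminescence from glucocorticoid response element reporter as proxy for Hsp90 function; inhibitor potency where signal loss means Hsp90 inhibition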
Streptococcus = assay: GAS UMAA2166 growth inhibition – luminescence, BacTiterGlo, counter-screen for streptokinase expression inhibitor project, dose response (AID 1915); format: functional, organism-based;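 note: potency for reduction of bacterial viability or growth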
[21] = tested on: Streptococcus sp. 'group A'; assay: Streptococcus pyogenes SK(-)GAS viability under kanamycin – luminescence, BacTiterGlo, confirmation, counter-screen for streptokinase expression inhibitor project, dose response (AID 1900); format: functional, organism-based
[22] = target: T5, Serine/threonine-protein phosphatase (Candida dubliniensis (strain CD36 / CBS 7987 / NCPF 3949 / NRRLY-17841) (Yeast), UniProt B9W6M3); assay: blockers of CaCl2-induced CDRE-lacZ signaling – S. cerevisiae, luminescence, secondary, dose response (AID 2388); format: functional, cell-based;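 note: yeast reporter cells carrying a calcineurin-responsive lacZ construct stimulated with calcium chloride; luminescent beta-galactosidase reporter signal in whole cells rather than isolated phosphatase activity; potency for inhibition where a drop in reporter signal means calcineurin blockade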
T5 sequence (B9W6M3 whole entry): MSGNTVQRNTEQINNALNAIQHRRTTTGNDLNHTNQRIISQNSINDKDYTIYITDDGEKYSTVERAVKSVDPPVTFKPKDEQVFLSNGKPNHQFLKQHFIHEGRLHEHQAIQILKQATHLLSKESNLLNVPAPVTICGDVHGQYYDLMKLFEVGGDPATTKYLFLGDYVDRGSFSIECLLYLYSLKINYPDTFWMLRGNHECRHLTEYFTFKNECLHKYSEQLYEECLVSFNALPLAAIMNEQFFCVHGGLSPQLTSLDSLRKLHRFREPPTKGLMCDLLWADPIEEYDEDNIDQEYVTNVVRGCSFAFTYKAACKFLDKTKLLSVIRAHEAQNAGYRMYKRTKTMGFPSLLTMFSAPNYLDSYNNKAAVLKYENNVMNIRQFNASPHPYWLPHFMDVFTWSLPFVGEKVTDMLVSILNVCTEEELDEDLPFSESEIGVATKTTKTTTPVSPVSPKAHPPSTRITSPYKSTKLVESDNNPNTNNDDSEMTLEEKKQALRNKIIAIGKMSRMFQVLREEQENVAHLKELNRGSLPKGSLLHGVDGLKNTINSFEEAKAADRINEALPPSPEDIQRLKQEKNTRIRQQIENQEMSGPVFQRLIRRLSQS

INS1 = assay: INS-1E survival protection against cytokine death – cell-based, luminescence, retest, dose response (AID 449756); format: functional; settings: Rattus norvegicus;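 note: cell death triggered by IL-1 beta plus TNF-alpha plus IFN-gamma mixture; protective hits raise ATP signal compared with cytokine alone wells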
[23] = alpha-synuclein stem-loop translation blockers – luminescence, H4 neuroglioblastoma cells, dose confirmation, confirmation (AID 2454); format: functional, cell-based;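 note: H4 neuroglioblastoma cells carrying an alpha-synuclein 5'UTR luciferase reporter; potency for inhibition of the luciferase signal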
[24] = NIH-3T3 fibroblast cytotoxicity, dose response, cytotoxicity control, cell-based, fluorescence, Alamar Blue, secondary assay (AID 2327); format: functional;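 note: NIH-3T3 mouse fibroblasts cultured with fluconazole at 8 µg/mL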
[25] = Trypanosoma cruzi growth suppression in host cells – NIH3T3 host cells, beta-gal luminescence, confirmation (AID 2044); format: functional, cell-based;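 note: intracellular parasites grown in NIH/3T3 mouse fibroblasts as host cells; luminescent beta-galactosidase reporter signal from transgenic T. cruzi replicating inside host cells; inhibitors lower the luminescence signal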
[26] = fluconazole-exposed Candida albicans growth modulators – fluorescence, retest, confirmation (AID 2467); format: functional, cell-based

Chain of ADP-ribosylation factor GTPase-activating protein 1 (Q62848 whole entry): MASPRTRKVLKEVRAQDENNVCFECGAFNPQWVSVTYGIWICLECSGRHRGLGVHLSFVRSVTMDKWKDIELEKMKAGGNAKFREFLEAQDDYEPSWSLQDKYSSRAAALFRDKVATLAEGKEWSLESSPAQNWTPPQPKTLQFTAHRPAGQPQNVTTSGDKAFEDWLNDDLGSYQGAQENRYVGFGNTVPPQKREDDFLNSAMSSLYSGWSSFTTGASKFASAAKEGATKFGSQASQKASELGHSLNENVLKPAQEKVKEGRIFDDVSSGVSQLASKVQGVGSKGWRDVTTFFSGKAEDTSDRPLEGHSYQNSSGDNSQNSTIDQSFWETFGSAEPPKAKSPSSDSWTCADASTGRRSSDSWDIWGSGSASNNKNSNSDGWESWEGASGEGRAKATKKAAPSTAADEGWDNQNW
Chain of Peroxisome proliferator-activated receptor gamma/Nuclear receptor coactivator 3 (P37231 whole entry): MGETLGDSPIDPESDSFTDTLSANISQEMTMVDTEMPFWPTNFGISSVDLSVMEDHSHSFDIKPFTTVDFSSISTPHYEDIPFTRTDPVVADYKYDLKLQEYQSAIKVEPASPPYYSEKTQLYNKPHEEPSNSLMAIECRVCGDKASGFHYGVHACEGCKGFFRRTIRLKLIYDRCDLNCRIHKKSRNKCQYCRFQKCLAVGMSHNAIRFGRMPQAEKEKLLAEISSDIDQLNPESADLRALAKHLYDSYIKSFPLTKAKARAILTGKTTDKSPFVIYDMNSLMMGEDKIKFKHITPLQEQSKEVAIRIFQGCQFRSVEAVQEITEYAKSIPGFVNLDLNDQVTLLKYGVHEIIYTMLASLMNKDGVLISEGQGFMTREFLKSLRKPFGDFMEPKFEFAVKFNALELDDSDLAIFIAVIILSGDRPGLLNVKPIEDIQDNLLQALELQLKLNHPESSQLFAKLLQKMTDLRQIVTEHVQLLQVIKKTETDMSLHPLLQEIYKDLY
Chain of Peroxisome proliferator-activated receptor gamma/Nuclear receptor coactivator 3 (Q9Y6Q9 whole entry, further chain): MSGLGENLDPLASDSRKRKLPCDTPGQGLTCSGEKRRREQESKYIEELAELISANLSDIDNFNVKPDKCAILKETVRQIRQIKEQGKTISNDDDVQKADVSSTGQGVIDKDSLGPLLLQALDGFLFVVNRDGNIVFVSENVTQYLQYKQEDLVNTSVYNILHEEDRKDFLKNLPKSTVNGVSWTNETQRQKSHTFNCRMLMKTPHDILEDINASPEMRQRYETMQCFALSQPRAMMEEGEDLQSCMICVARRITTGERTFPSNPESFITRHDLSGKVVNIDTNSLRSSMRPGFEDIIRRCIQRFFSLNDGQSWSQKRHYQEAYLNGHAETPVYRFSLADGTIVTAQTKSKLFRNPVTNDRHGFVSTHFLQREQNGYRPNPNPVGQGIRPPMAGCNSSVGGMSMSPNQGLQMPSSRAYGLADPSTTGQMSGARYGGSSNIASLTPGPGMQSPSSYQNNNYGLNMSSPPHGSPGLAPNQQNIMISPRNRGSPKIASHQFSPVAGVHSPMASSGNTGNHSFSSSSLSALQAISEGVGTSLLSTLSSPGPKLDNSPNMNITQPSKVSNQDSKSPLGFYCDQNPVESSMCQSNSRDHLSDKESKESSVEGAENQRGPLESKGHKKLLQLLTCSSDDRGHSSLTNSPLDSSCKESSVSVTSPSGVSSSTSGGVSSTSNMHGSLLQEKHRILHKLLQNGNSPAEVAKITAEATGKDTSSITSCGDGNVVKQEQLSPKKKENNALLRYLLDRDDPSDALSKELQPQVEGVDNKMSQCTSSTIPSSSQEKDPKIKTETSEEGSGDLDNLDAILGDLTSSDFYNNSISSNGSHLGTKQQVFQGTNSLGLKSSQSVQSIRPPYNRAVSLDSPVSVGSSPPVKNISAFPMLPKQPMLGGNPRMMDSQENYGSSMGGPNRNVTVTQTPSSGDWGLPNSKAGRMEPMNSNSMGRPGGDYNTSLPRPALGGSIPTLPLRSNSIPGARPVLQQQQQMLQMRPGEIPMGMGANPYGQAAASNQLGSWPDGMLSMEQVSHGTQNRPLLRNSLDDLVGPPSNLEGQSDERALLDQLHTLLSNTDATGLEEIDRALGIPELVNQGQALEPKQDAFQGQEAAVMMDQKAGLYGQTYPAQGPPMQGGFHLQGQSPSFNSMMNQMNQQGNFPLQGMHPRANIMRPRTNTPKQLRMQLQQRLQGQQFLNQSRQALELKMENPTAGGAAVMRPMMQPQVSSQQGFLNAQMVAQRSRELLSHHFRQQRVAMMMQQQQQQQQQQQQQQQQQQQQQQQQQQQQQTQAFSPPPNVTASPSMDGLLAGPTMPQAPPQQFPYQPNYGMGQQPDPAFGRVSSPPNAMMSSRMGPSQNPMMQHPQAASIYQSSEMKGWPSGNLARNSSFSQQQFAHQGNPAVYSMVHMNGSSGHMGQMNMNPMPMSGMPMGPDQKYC
Chain of Peroxisome proliferator-activated receptor gamma/Nuclear receptor coactivator 1 (P37231 whole entry): as the sequence (P37231 whole entry) above
Chain of Peroxisome proliferator-activated receptor gamma/Nuclear receptor coactivator 1 (Q15788 whole entry, further chain): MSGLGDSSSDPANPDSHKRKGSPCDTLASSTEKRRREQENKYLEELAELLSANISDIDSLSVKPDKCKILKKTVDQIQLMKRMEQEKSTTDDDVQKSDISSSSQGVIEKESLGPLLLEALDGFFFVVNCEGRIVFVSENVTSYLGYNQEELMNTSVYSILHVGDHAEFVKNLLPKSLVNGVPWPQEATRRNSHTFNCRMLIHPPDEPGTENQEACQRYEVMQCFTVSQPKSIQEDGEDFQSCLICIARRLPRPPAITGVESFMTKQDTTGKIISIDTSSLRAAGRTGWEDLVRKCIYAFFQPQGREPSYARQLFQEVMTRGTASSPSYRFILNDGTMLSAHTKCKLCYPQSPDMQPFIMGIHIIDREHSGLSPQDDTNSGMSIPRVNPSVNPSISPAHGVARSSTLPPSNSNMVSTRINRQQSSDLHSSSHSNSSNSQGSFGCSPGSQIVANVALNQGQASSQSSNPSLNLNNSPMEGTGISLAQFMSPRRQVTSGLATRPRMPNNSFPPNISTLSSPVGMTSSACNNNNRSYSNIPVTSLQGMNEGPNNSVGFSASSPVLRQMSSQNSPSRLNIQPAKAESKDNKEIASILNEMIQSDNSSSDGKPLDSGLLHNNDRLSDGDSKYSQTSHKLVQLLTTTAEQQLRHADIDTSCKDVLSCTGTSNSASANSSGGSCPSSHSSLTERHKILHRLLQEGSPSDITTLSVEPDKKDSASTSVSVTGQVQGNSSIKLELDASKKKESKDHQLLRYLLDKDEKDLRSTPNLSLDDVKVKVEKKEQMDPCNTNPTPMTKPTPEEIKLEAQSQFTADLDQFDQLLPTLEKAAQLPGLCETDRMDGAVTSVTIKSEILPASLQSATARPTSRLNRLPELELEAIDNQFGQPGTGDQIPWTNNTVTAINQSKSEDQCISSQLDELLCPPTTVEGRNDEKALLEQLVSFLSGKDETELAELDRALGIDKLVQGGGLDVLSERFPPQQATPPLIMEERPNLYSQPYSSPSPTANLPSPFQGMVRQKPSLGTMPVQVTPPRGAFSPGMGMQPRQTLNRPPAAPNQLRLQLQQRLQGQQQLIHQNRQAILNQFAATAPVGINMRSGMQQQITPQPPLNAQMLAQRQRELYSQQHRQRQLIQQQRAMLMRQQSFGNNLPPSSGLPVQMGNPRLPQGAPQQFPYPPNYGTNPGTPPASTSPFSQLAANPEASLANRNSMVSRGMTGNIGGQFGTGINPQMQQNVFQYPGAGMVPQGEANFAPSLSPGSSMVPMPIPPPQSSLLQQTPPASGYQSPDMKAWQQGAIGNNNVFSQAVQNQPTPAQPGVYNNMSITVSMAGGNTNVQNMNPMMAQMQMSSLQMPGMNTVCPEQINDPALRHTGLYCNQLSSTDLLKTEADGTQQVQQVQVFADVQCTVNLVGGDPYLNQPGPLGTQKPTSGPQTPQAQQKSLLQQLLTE
Chain of ATP-dependent molecular chaperone HSP82 (C4YTQ8 whole entry): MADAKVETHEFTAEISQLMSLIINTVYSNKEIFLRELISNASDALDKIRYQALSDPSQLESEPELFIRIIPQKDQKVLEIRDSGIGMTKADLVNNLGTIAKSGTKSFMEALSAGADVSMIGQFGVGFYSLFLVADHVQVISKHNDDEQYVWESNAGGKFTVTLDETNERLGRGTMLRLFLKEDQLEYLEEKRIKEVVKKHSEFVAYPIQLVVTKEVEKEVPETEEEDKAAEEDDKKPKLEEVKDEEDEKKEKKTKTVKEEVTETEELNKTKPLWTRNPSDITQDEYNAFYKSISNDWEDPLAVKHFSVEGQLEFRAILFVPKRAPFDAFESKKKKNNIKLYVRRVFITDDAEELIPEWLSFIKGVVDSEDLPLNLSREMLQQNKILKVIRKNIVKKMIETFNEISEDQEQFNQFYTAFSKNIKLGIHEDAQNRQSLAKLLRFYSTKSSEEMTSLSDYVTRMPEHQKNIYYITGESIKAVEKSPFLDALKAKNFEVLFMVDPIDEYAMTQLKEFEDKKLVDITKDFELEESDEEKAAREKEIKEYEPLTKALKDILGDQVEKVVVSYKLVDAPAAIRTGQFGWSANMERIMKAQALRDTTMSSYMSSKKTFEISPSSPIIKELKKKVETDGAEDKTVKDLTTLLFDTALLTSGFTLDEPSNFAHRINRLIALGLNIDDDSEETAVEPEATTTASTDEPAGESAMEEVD

## O=C(NC1=NCCS1)C1COc2ccccc2O1 (configuration not stated)
[1]
  AC50: 1.62 µM (active)
[2]
  EC50: > 60 µM (not active)
[3]
  AC50: 1.7 µM (active)
[4]
  IC50: > 39.8 µM (not active)
[5]
  EC50: 3.37 µM (active)
[6]
  AC50: 3.6 µM (active)
[7]
  EC50: 0.149 µM (active)
[8]
  EC50: 8.01 µM (active)
[9]
  AC50: 3.15 µM (active)
[10]
  AC50: 13.7 µM (active)

## Nc1c(C(=O)NC2CC2)c2nc3ccccc3nc2n1-c1ccc2c(c1)OCO2
H9c2
  IC50: > 79 µM (inactive)
[11]
  CC50: > 40 µM (active)

## CCC(C)N1CC(=O)C(c2nc3ccccc3[nH]2)=C1N (configuration not stated)
[12]
  EC50: 98.9 µM (not active)

## COc1ccccc1CNC(=O)CSc1nc(N)c(C#N)c(-c2cccs2)c1C#N
[13]
  EC50: > 79.4 µM (not active)
[14]
  IC50: 43.2 µM (inactive)
[15]
  EC50: 67.6 µM (not active)
[16]
  EC50: > 79.4 µM (not active)

## CC1CCN(Cc2c(C(=O)N/N=C/c3cc(Br)ccc3O)nnn2-c2nonc2N)CC1
[17]
  EC50: 1.63 µM (active)
Streptokinase A
  EC50: 40.3 µM (inconclusive)
[18]
  EC50: 1.79 µM (active)
cells
  EC50: 0.982 µM (active)
[19]
  EC50: 5.24 µM (active)
[20]
  EC50: > 160 µM (inactive)
Streptococcus
  EC50: 8.29 µM (active)
[21]
  EC50: 4.79 µM (active)
[22]
  EC50: > 180 µM (inactive)
INS1
  AC50: 0.365 µM (active)
[7]
  EC50: < 0.1 µM (active)
[23]
  EC50: > 12 µM (not active)
[24]
  EC50: 35.2 µM (inconclusive)
[25]
  EC50: 0.556 µM (active)
[26]
  EC50: 0.622 µM (active)
